{
  "source": "patent US5071988A",
  "about": "“Substituted benzoylbenzene-, biphenyl- and 2-oxazole-alkanoic acid derivatives” (American Home Products Corporation, priority 1991, dated 1991)",
  "key": {"[1]": {"tested_on": "TxB2", "test": "reverse passive Arthus pleurisy assay, TxB2", "assay_type": "in vivo, rat (male Lewis)", "settings": "Rattus norvegicus, po, 5 min, read-out: ED50 TxB2", "procedure": "(§1) The compounds of the invention are further tested in the reverse passive Arthus pleurisy assay to evaluate their effectiveness in inflammatory mediator release and/or the fluid and cellular phases of an inflammatory response.\n(§2) A reverse passive Arthus reaction is induced in the pleural cavity of male Lewis rats (150-200 g; fasted overnight prior to use) by the intravenous administration of bovine serum albumin (BSA; 4 mg/0.2 ml) followed by 30 minutes later by the injection of rabbit anti-BSA (1 mg/0.2 ml; lyophilized IgG fraction; Organon Teknika, West Chester, Pa.) into the right pleural space under halothane anesthesia. Drugs or vehicle (0.5% Tween-80) control are administered orally in a volume of 1 ml/100 g body weight at 1 hour prior to the anti-BSA. Animals are sacrificed at either the time of peak eicosanoid production (i.e. 5 minutes after anti-BSA for immunoreactive TxB2 10 minutes for immunoreactive LTB4, 20 minutes for immunoreactive LTC4) or at the time of peak neutrophil infiltration (4 hours after anti-BSA) by CO2 inhalation. The pleural cavity is then exposed, the fluid exudate removed by gentle vacuum aspiration and the volume of exudate is recorded. For the determination of cellular infiltration, the pleural cavity is rinsed with 3 ml of 0.1% EDTA in sterile saline, and the recovered wash is pooled with the exudate. Cell number is determined on a model ZBI Coulter counter. For determination of eicosanoid production, undiluted pleural exudate is microfuged and the supernatant is extracted with ethanol (8-10 times volume). Extracts are either stored at -20° C., or are evaporated to dryness under a stream of N2 and reconstituted in radioimmunoassay (RIA) buffer.\n(§3) Eicosanoids are quantitated by RIA according to the procedure specified by the RIA kit manufacturer (Advanced Magnetics, Cambridge, Mass.). Briefly, 100 μl of ^3 H-labeled eicosanoid and 100 μl of specific antibody are sequentially added to 100 μl of extracted pleural exudate in BGG -phosphate buffer which contains 0.01M phosphate, 0.1% bovine gamma globulin and 0.1% sodium azide at pH 7.0. Antibody-bound eicosanoid is separated from unbound eicosanoid by the addition of 750 μl of dextran (0.4%)-coated charcoal (0.4% Norit A) containing 0.1% sodium azide. The mixture is centrifuged at 2000 RPM at 5° C. for 15 minutes to pellet the charcoal and adsorbed unbound eicosanoid. Antibody-bound labeled eicosanoid is quantitated by counting in a liquid scintillation counter, and is correlated to concentration by a standard curve.\n(§4) Inflammatory cells are expressed as 10^6 cells/ml, pleural exudate is expressed as ml of fluid, and the amount of eicosanoids in the pleural cavity is expressed as ng/ml of exudate. Mean±S.E.M. is determined for each group. Percent inhibition (% I) of cell number, exudate volume and eicosanoid production is calculated for vehicle-treated control groups, and the responses in drug-treated rats are then expressed as the mean % I of the control. […] Exp. Ther., 96, 99-113 (1949)."}, "[2]": {"tested_on": "Cellular Influx", "test": "reverse passive Arthus pleurisy assay, cellular influx", "assay_type": "in vivo, rat (male Lewis)", "settings": "Rattus norvegicus, po, 4 h, 1 hour prior to anti-BSA; standard drugs", "procedure": "as §1, §2, §4"}, "[3]": {"tested_on": "Fluid Exudation", "test": "reverse passive Arthus pleurisy assay, fluid exudation", "assay_type": "in vivo, rat (male Lewis)", "settings": "Rattus norvegicus, po, 1 hour prior to anti-BSA; standard drugs", "procedure": "as §1, §2, §4"}, "[4]": {"tested_on": "LTB4", "test": "reverse passive Arthus pleurisy assay, LTB4", "assay_type": "in vivo, rat (male Lewis)", "settings": "Rattus norvegicus, po, 1 hour prior to anti-BSA; standard drugs; read-out: ED50 LTB4", "procedure": "as §1, §2, §3, §4"}, "[5]": {"tested_on": "6-keto-PGF1α /TxB2 (cyclooxygenase pathway)", "test": "in vivo murine zymosan peritonitis assay, 6-keto-PGF1α", "parameters": "species or system mouse (male CD-1)", "procedure": "(§5) The compounds of the invention are evaluated for their ability to inhibit the lipoxygenase and/or cyclooxygenase pathways of arachidonic acid metabolism in the in vivo murine zymosan peritonitis assay.\nMale CD-1 mice (8 weeks old) are placed in plastic boxes in groups of six. Animals are injected with 1 mL i.p. of either 1% zymosan in pyrogen free 0.9% saline or saline (unstimulated control). Compounds are dosed orally 1 hour prior to zymosan injection. Twenty minutes after zymosan injection, the mice are asphyxiated by CO2 inhalation and the peritoneal cavity is lavaged with 2 mL ice cold Hanks Balanced Salt Solution (HBSS) without CaCl2, MgSO4. 7H2 O and MgCl2.6H2 O. Peritoneal lavage fluid from each mouse is removed by syringe and placed in 5 mL plastic test tubes put on ice and volume is noted. Preparation of samples for evaluation by ELISA is as follows: Samples are centrifuged at 800 xg for 15 minutes; 1 mL of the supernatant is added to 8 mL ice cold methanol and kept at -70° C. overnight to precipitate protein; and samples are then centrifuged at 800 xg for 15 minutes, followed by a drying procedure in a Savant speed vac concentrator. […]\n(§6) The total metabolite level in lavage fluid/mouse is calculated and the significance is determined by a one-way analysis of variance with LSD comparisons to control (p≤0.05). Drug effects are expressed as a percent change from control values."}, "[6]": {"tested_on": "LTB4 synthesis by rat glycogen-elicited polymorphonuclear leukocytes (PMN)", "test": "inhibition of LTB4 synthesis by rat glycogen-elicited polymorphonuclear leukocytes (PMN)", "assay_type": "cell-based, rat (female Wistar)", "settings": "Leukocyte, at 10 μM", "source_text": "This is especially true with respect to 5,12-diHETE, which is also denoted as LTB4 [see Ford-Hitchinson, J. Roy. […] Med., 74, 831 (1981)]. Compounds which inhibit the PLA2 -mediated release of arachidonic acid thereby effectively prevent the oxidation of arachidonic acid to the various leukotriene products via the lipoxygenase cascade. Accordingly, the specificity of action of PLA2 inhibitors can be determined by the activity of test compounds in this assay, which measures the ability of compounds to inhibit the synthesis of LTB4 by rat glycogen-elicited polymorphonuclear leukocytes (PMN) in the presence of exogenous substrate.\nThe assay is carried out as follows:\nRat polymorphonuclear leukocytes (PMNs) are obtained from female Wistar rats (150-200 g) which receive an injection of 6% glycogen (10 ml i.p.). Rats are sacrificed 18-24 hours post injection by CO2 asphyxiation and the elicited cells are harvested by peritoneal lavage using physiological saline (0.9% NaCl). The exudate is centrifuged at 400 xg for 10 minutes. The supernatant fluid is discarded and the cell pellet is resuspended to a concentration of 2.0×10^7 cells/mL in HBSS containing Ca^++ and Mg^++ and 10 μM L-cysteine.\nTo 1 mL aliquots of cell suspension, test drugs or vehicle are added, then preincubated at 37° C. for 10 minutes. A23187 (1 μM), [^3 H]-AA (3.0 μCi/mL) and unlabeled AA (1 μM) are then added and the samples are further incubated for 10 minutes. The reaction is terminated by centrifugation and pelleting cells. Supernatants are then analyzed by HPLC analysis on a 15 cm×4.6 mm ID supelcosil LC-18 (Supelco)(3M) column, using a two solvent system at a flow rate of 1.4 mL total flow as follows:\nGradient: (system is equilibrated with Solvent A)\nPercent solvent changes are accomplished in a linear fashion.\nInjections: 140 μL of each supernatant is injected directly onto column and ^3 H arachidonic acid metabolites are monitored using an on-line radioactivity detector (Ramona, IN/US, Fairfield, N.J.).\nStandards: 10^4 -2.0×10^4 dpm of eicosanoids of interest are injected in 90 μL EtOH cocktail.\nResults are expressed as percent inhibition at a given compound dose or as an IC50 value."}, "[7]": {"tested_on": "LTC4 (lipoxygenase pathway)", "test": "in vivo murine zymosan peritonitis assay, LTC4", "parameters": "species or system mouse (male CD-1)", "settings": "for ED50 LTC4: p.o., 1 hour prior to zymosan, standard drugs", "procedure": "as §5\nMale CD-1 mice (8 weeks old) are placed in plastic boxes in groups of six. Animals are injected with 1 mL i.p. of either 1% zymosan in pyrogen free 0.9% saline or saline (unstimulated control). Compounds are dosed orally 1 hour prior to zymosan injection. Twenty minutes after zymosan injection, the mice are asphyxiated by CO2 inhalation and the peritoneal cavity is lavaged with 2 mL ice cold Hanks Balanced Salt Solution (HBSS) without CaCl2, MgSO4. 7H2 O and MgCl2.6H2 O. Peritoneal lavage fluid from each mouse is removed by syringe and placed in 5 mL plastic test tubes put on ice and volume is noted. Preparation of samples for evaluation by ELISA is as follows: Samples are centrifuged at 800 xg for 15 minutes; 1 mL of the supernatant is added to 8 mL ice cold methanol and kept at -70° C. overnight to precipitate protein; and samples are then centrifuged at 800 xg for 15 minutes, followed by a drying procedure in a Savant speed vac concentrator. The samples are reconstituted with 1 mL ice cold ELISA buffer and stored at -70° C. until assayed. The assay for eicosanoids (LTC4 and 6-keto-PGF1α) is performed according to conventional ELISA procedures.\nCompounds to be tested orally are suspended in 0.5% Tween 80. Compounds to be tested intraperitoneally are suspended in 0.5% methylcellulose in 0.9% saline.\nas §6"}},
  "note": "Where two headings read alike, the source gives them in different places.",
  "data": [
    {"smiles": "NC1=NN(c2cccc(C(F)(F)F)c2)CC1", "note": "[BW755C]", "values": [
      {"measurement": "ED50", "setting": "[1]; p.o., 1 hour prior to anti-BSA, standard drugs", "result": 18, "unit": "mg/kg"},
      {"measurement": "ED30", "setting": "[2]", "result": 28, "unit": "mg/kg"},
      {"measurement": "ED30", "setting": "[3]", "result": 14, "unit": "mg/kg"},
      {"measurement": "ED50", "setting": "[4]", "result": 23, "unit": "mg/kg"},
      {"measurement": "ED50", "setting": "[5]; Mus musculus, po, 20 min, 1 hour prior to zymosan, standard drugs", "result": 22, "unit": "mg/kg"}
    ]},
    {"smiles": "O=C(O)CCc1nc(-c2ccc(OCc3ccc4ccccc4n3)cc2)c(-c2ccccc2)o1", "note": "[Example 5, 5-Phenyl-4-[4-(2-Quinolinylmethoxy)phenyl]-2-oxazole propanoic acid]", "values": [
      {"measurement": "% Inhibition 6-keto-PGF", "setting": "[5]; 10 mg/kg i.p., negative values denote potentiation", "result": -27, "unit": "%"},
      {"measurement": "inhibition at 10 µM", "setting": "[6]", "result": 96, "unit": "%"},
      {"measurement": "% Inhibition LTC4", "setting": "[7]; 10 mg/kg i.p.", "result": 86, "unit": "%"}
    ]},
    {"smiles": "COc1ccc2c(c1)c(CC(=O)O)c(C)n2C(=O)c1ccc(Cl)cc1", "note": "[Indomethacin]", "values": [
      {"measurement": "ED50", "setting": "[1]", "result": 0.16, "unit": "mg/kg"},
      {"measurement": "ED50 LTC4", "setting": "[7]", "result": "Not Active"}
    ]},
    {"smiles": "CC(C)Cc1ccc(C(C)C(=O)O)cc1", "note": "(centres unmarked) [Ibuprofen]", "values": [
      {"measurement": "ED50 LTC4", "setting": "[7]", "result": "Not Active"}
    ]}
  ]
}
